The source of these data is PubChem BioAssay AID192 (DTP/NCI, 2004).

Values joined by “and” are separate entries in the source; they are usually repeats but may differ in a detail not shown here. Identical values can stand only once. Inconclusive results and toxic doses are left out.

For the assay, the system named is BDF1 mice, B16 melanoma ip, median survival T/C. Kind of assay: NCI In Vivo Anticancer Drug Screen. Data for tumor model B16 Melanoma (intraperitoneal) in B6D2F1 (BDF1) mice. The settings on record: endpoint: median survival time, higher = longer survival. A digest of the protocol: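 The ratio T/C compares compound-treated mice with vehicle-treated controls, using survival or tumor size as the endpoint in a transplantable tumor model.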

Setting [1] is: dose: 12.5 mg/kg/injection, schedule: Q01DX009 (ip), vehicle: saline with Tween-80.
The mark [2] stands for this setting: dose: 25.0 mg/kg/injection, schedule: Q01DX009 (ip), vehicle: saline with Tween-80.
Where [3] appears, read: dose: 50.0 mg/kg/injection, schedule: Q01DX009 (ip), vehicle: saline with Tween-80.
[4] abbreviates: dose: 12.5 mg/kg/injection, schedule: Q01DX009 (ip), vehicle: saline.
Setting [5] is: dose: 25.0 mg/kg/injection, schedule: Q01DX009 (ip), vehicle: saline.
The mark [6] stands for this setting: dose: 25.0 mg/kg/injection, schedule: Q01DX009 (ip), vehicle: Klucel (hydroxypropylcellulose) (HPC).
Where [7] appears, read: dose: 50.0 mg/kg/injection, schedule: Q01DX009 (ip), vehicle: Klucel (hydroxypropylcellulose) (HPC).
Where [8] appears, read: dose: 100.0 mg/kg/injection, schedule: Q01DX009 (ip), vehicle: saline with Tween-80.
The mark [9] stands for this setting: dose: 200.0 mg/kg/injection, schedule: Q01DX009 (ip), vehicle: saline with Tween-80.
[10] abbreviates: dose: 400.0 mg/kg/injection, schedule: Q01DX009 (ip), vehicle: saline with Tween-80.

As to `CC(=O)O[C@H]1C(=O)[C@@]2(C)[C@H]([C@H](OC(=O)c3ccccc3)[C@]3(O)C[C@H](OC(=O)[C@H](O)[C@@H](NC(=O)c4ccccc4)c4ccccc4)C(C)=C1C3(C)C)[C@]1(OC(C)=O)CO[C@@H]1C[C@@H]2O`, the T/C is 100 % of control (dose: 0.66 mg/kg/injection, schedule: Q01DX005 (iv), vehicle: other); 160 % of control (dose: 0.66 mg/kg/injection, schedule: Q08HX018 (ip), vehicle: Klucel (hydroxypropylcellulose) (HPC)); 110 % of control (dose: 0.66 mg/kg/injection, schedule: Q08HX018 (ip), vehicle: other); 183 % of control (dose: 0.98 mg/kg/injection, schedule: Q08HX018 (ip), vehicle: Klucel (hydroxypropylcellulose) (HPC)); 153 % of control and 181 % of control (dose: 1.25 mg/kg/injection, schedule: Q01DX009 (ip), vehicle: Klucel (hydroxypropylcellulose) (HPC)); 91 % of control (dose: 1.25 mg/kg/injection, schedule: Q01DX009 (oral), vehicle: Klucel (hydroxypropylcellulose) (HPC)). For the same compound, the T/C runs as follows: (dose: 1.32 mg/kg/injection, schedule: Q01DX009 (ip), vehicle: Klucel (hydroxypropylcellulose) (HPC)) 164 % of control; (dose: 1.48 mg/kg/injection, schedule: Q01DX005 (iv), vehicle: other) 105 % of control; (dose: 1.48 mg/kg/injection, schedule: Q08HX018 (ip), vehicle: Klucel (hydroxypropylcellulose) (HPC)) 207 % of control; (dose: 1.48 mg/kg/injection, schedule: Q08HX018 (ip), vehicle: other) 174 % of control; (dose: 1.98 mg/kg/injection, schedule: Q01DX009 (ip), vehicle: Klucel (hydroxypropylcellulose) (HPC)) 183 % of control and 200 % of control; (dose: 2.22 mg/kg/injection, schedule: Q08HX018 (ip), vehicle: Klucel (hydroxypropylcellulose) (HPC)) 187 % of control. Also, the T/C runs as follows: (dose: 2.22 mg/kg/injection, schedule: Q08HX018 (ip), vehicle: other) 193 % of control; (dose: 2.5 mg/kg/injection, schedule: Q01DX009 (ip), vehicle: other) 106 % of control; (dose: 2.5 mg/kg/injection, schedule: Q01DX009 (oral), vehicle: Klucel (hydroxypropylcellulose) (HPC)) 116 % of control; (dose: 2.96 mg/kg/injection, schedule: Q01DX009 (ip), vehicle: Klucel (hydroxypropylcellulose) (HPC)) 206 % of control and 217 % of control; (dose: 3.33 mg/kg/injection, schedule: Q01DX005 (iv), vehicle: other) 95 % of control; (dose: 3.33 mg/kg/injection, schedule: Q08HX018 (ip), vehicle: Klucel (hydroxypropylcellulose) (HPC)) 198 % of control. Further, the T/C is, setting by setting: (dose: 4.44 mg/kg/injection, schedule: Q01DX009 (ip), vehicle: Klucel (hydroxypropylcellulose) (HPC)) 194 % of control and 231 % of control; (dose: 5.0 mg/kg/injection, schedule: Q08HX018 (ip), vehicle: Klucel (hydroxypropylcellulose) (HPC)) 240 % of control; (dose: 5.0 mg/kg/injection, schedule: Q08HX018 (ip), vehicle: other) 150 % of control and 208 % of control; (dose: 7.5 mg/kg/injection, schedule: Q01DX005 (iv), vehicle: other) 100 % of control; (dose: 7.5 mg/kg/injection, schedule: Q08HX018 (ip), vehicle: Klucel (hydroxypropylcellulose) (HPC)) 122 % of control; (dose: 11.2 mg/kg/injection, schedule: Q01DX005 (iv), vehicle: other) 108 % of control. In addition, the T/C runs as follows: (dose: 20.0 mg/kg/injection, schedule: Q01DX009 (oral), vehicle: Klucel (hydroxypropylcellulose) (HPC)) 108 % of control; (dose: 40.0 mg/kg/injection, schedule: Q01DX009 (oral), vehicle: Klucel (hydroxypropylcellulose) (HPC)) 106 % of control.
With `Nc1ncn(C2CC(O)C(CO)O2)c(=O)n1` (stereo unspecified), the T/C reads like this: (dose: 0.01 mg/kg/injection, schedule: Q01DX009 (ip), vehicle: Klucel (hydroxypropylcellulose) (HPC)) 98 % of control; (dose: 0.03 mg/kg/injection, schedule: Q01DX009 (ip), vehicle: Klucel (hydroxypropylcellulose) (HPC)) 109 % of control; (dose: 0.05 mg/kg/injection, schedule: Q01DX009 (ip), vehicle: Klucel (hydroxypropylcellulose) (HPC)) 99 % of control; (dose: 0.06 mg/kg/injection, schedule: Q01DX009 (ip), vehicle: Klucel (hydroxypropylcellulose) (HPC)) 98 % of control; (dose: 0.1 mg/kg/injection, schedule: Q01DX009 (ip), vehicle: Klucel (hydroxypropylcellulose) (HPC)) 100 % of control; (dose: 0.12 mg/kg/injection, schedule: Q01DX009 (ip), vehicle: Klucel (hydroxypropylcellulose) (HPC)) 105 % of control. The T/C is 100 % of control (dose: 0.2 mg/kg/injection, schedule: Q01DX009 (ip), vehicle: Klucel (hydroxypropylcellulose) (HPC)); 102 % of control (dose: 0.25 mg/kg/injection, schedule: Q01DX009 (ip), vehicle: Klucel (hydroxypropylcellulose) (HPC)); 105 % of control (dose: 0.4 mg/kg/injection, schedule: Q01DX009 (ip), vehicle: Klucel (hydroxypropylcellulose) (HPC)); 104 % of control (dose: 0.5 mg/kg/injection, schedule: Q01DX009 (ip), vehicle: Klucel (hydroxypropylcellulose) (HPC)); 122 % of control (dose: 0.8 mg/kg/injection, schedule: Q01DX009 (ip), vehicle: Klucel (hydroxypropylcellulose) (HPC)).
In the case of `COc1cc2cc3cc4cc(OC)c(OC)cc4c(C)[n+]3cc2cc1OC` (tested in a mixture with another compound), the T/C by setting is: (dose: 10.0 mg/kg/injection, schedule: Q01DX009 (ip), vehicle: Klucel (hydroxypropylcellulose) (HPC)) 96 % of control; (dose: 20.0 mg/kg/injection, schedule: Q01DX009 (ip), vehicle: Klucel (hydroxypropylcellulose) (HPC)) 95 % of control.
Consider `FC(F)(F)c1nc2nc(Cl)c(Cl)nc2[nH]1`, for which the T/C is 116 % of control under setting [1], 114 % of control under setting [2] and 98 % of control under setting [3].
Regarding `CCOc1cc(N2CCOCC2)c(OCC)cc1N`, the T/C runs as follows: (dose: 6.25 mg/kg/injection, schedule: Q01DX009 (ip), vehicle: saline) 95 % of control; under setting [4], 102 % of control; under setting [5], 100 % of control.
As to `CC(Cc1ccccc1)NCCc1c2ccccc2nc2ccccc12` (stereo unspecified), the T/C (dose: 12.5 mg/kg/injection, schedule: Q01DX009 (ip), vehicle: Klucel (hydroxypropylcellulose) (HPC)) was 92 % of control; the T/C under setting [6] is 86 % of control and 100 % of control; the T/C under setting [7] was 90 % of control and 92 % of control; the T/C (dose: 200.0 mg/kg/injection, schedule: Q01DX009 (ip), vehicle: Klucel (hydroxypropylcellulose) (HPC)) was 92 % of control.
Turning to `CCCCNC(=O)Nc1c(C)cccc1C`, the T/C is, setting by setting: (dose: 100.0 mg/kg/injection, schedule: Q01DX009 (ip), vehicle: gum acacia) 95 % of control; (dose: 200.0 mg/kg/injection, schedule: Q01DX009 (ip), vehicle: gum acacia) 94 % of control.
For the compound `FC(F)(F)c1cc(CN(CCCl)CCCl)cc(C(F)(F)F)c1`, the T/C is 97 % of control under setting [4] and 92 % of control under setting [5].
Consider `CC(=O)O[C@@H]1[C@@H](O)C2=C3[C@]4(C)[C@@H]1C(C)(C)C(=O)C[C@@H]4[C@]3(O)[C@H](OC(C)=O)[C@@]1(C[C@@H]1C)C2=O`, for which the T/C (dose: 1.0 mg/kg/injection, schedule: Q01DX009 (ip), vehicle: saline with Tween-80) was 115 % of control; the T/C (dose: 2.0 mg/kg/injection, schedule: Q01DX009 (ip), vehicle: saline with Tween-80) was 109 % of control; the T/C (dose: 3.12 mg/kg/injection, schedule: Q01DX009 (ip), vehicle: saline with Tween-80) was 97 % of control and 101 % of control; the T/C (dose: 4.0 mg/kg/injection, schedule: Q01DX009 (ip), vehicle: saline with Tween-80) is 102 % of control; the T/C (dose: 6.25 mg/kg/injection, schedule: Q01DX009 (ip), vehicle: saline with Tween-80) was 104 % of control; the T/C (dose: 8.0 mg/kg/injection, schedule: Q01DX009 (ip), vehicle: saline with Tween-80) is 114 % of control. Also, the T/C is 119 % of control under setting [1], 104 % of control under setting [2] and 101 % of control under setting [3].
For the compound `O=C(Nc1ccc(F)cc1)c1cccc(C(=O)Nc2ccc(F)cc2)c1`, the T/C was 114 % of control under setting [6]; 101 % of control under setting [7]; 96 % of control (dose: 100.0 mg/kg/injection, schedule: Q01DX009 (ip), vehicle: Klucel (hydroxypropylcellulose) (HPC)).
As for `COC(=O)c1cc(I)ccc1O`, the T/C is 102 % of control under setting [8], 104 % of control under setting [9] and 102 % of control under setting [10].
As to `CCCCCCCCSSCCCCCCCC`, the T/C was 108 % of control under setting [8], 101 % of control under setting [9] and 98 % of control under setting [10].
